Assay results from ChEMBL document CHEMBL3352263, “Synthesis and biological evaluation of bivalent cannabinoid receptor ligands based on hCB₂R selective benzimidazoles reveal unexpected intrinsic properties” (Bioorg Med Chem, 2014).

How the values were obtained:
Cannabinoid receptor 1 [1] = biological target: T1, Cannabinoid receptor 1 (Homo sapiens, UniProt P21554); assay: Agonist activity at human CB1 receptor expressed in Sf9 cells coexpressing Galpha i2 assessed as Galpha GTPase activity using [gamma-33P]GTP by scintillation counting
T1 sequence (P21554 whole entry): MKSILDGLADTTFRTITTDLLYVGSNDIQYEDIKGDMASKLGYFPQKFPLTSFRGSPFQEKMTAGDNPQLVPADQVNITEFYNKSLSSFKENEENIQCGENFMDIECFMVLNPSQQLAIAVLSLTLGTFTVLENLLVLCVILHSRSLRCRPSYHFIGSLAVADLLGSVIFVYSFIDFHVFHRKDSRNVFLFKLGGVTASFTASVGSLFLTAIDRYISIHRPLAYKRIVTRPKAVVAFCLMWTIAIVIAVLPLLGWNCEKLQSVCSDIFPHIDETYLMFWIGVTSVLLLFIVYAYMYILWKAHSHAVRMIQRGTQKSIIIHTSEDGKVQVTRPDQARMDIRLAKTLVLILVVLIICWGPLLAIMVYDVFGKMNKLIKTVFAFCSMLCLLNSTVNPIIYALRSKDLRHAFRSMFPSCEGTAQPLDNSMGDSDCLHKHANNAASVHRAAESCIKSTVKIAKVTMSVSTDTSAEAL

Homo sapiens = organism: Homo sapiens; assay: Selectivity ratio of EC50 for human CB1 receptor to EC50 for human CB2 receptor
Cannabinoid receptor 1 [2] = biological target: T1, Cannabinoid receptor 1; assay: Agonist activity at human CB1 receptor expressed in Sf9 cells coexpressing Galpha i2 assessed as Galpha GTPase activity using [gamma-33P]GTP at 100 uM by scintillation counting
Cannabinoid receptor 2 [3] = biological target: T2, Cannabinoid receptor 2 (Homo sapiens, UniProt P34972); assay: Agonist activity at human CB2 receptor expressed in Sf9 cells coexpressing Galpha i2 assessed as Galpha GTPase activity using [gamma-33P]GTP at 100 uM by scintillation counting
T2 sequence (P34972 whole entry): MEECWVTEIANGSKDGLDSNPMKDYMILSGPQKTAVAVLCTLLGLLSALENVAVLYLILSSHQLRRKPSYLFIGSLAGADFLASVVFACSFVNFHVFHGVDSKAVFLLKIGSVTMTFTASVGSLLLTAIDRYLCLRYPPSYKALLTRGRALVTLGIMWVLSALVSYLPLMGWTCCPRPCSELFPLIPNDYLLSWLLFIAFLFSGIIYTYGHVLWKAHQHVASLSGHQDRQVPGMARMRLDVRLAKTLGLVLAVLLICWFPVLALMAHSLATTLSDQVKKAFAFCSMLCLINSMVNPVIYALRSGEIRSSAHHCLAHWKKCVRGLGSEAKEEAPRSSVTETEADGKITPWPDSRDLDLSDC

Cannabinoid receptor 2 [4] = biological target: T2, Cannabinoid receptor 2; assay: Antagonist activity at human CB2 receptor expressed in Sf9 cells coexpressing Galpha i2 assessed as Galpha GTPase activity using [gamma-33P]GTP at 100 uM by scintillation counting in presence of 30 nM CP55940; assay type: functional
Cannabinoid receptor 2 [5] = biological target: T2, Cannabinoid receptor 2; assay: Agonist activity at human CB2 receptor expressed in Sf9 cells coexpressing Galpha i2 assessed as Galpha GTPase activity using [gamma-33P]GTP by scintillation counting
Cannabinoid receptor 1 [6] = biological target: T1, Cannabinoid receptor 1; assay: Inverse agonist activity at human CB1 receptor expressed in Sf9 cells coexpressing Galpha i2 assessed as Galpha GTPase activity using [gamma-33P]GTP by scintillation counting in presence of CP55940
Cannabinoid receptor 2 [7] = biological target: T2, Cannabinoid receptor 2; assay: Inverse agonist activity at human CB2 receptor expressed in Sf9 cells coexpressing Galpha i2 assessed as Galpha GTPase activity using [gamma-33P]GTP by scintillation counting in presence of CP55940
Cannabinoid receptor 1 [8] = biological target: T1, Cannabinoid receptor 1; assay: Antagonist activity at human CB1 receptor expressed in Sf9 cells coexpressing Galpha i2 assessed as Galpha GTPase activity using [gamma-33P]GTP at 100 uM by scintillation counting in presence of 30 nM CP55940; assay type: functional
Cannabinoid receptor 2 [9] = biological target: T2, Cannabinoid receptor 2; assay: Antagonist activity at human CB2 receptor expressed in Sf9 cells coexpressing Galpha i2 assessed as Galpha GTPase activity using [gamma-33P]GTP by scintillation counting in presence of 30 nM CP55940; assay type: functional

Row | Structure (SMILES) | EC50 (Cannabinoid receptor 1 [1]) | Ratio EC50 (Homo sapiens) | Emax (Cannabinoid receptor 1 [2]) | Emax (Cannabinoid receptor 2 [3]) | Emax (Cannabinoid receptor 2 [4]) | EC50 (Cannabinoid receptor 2 [5]) | EC50 (Cannabinoid receptor 1 [6]) | EC50 (Cannabinoid receptor 2 [7]) | Emax (Cannabinoid receptor 1 [8]) | EC50 (Cannabinoid receptor 2 [9])
1 | CCCCn1c(Cc2ccc(OCC)cc2)nc2cc(C(=O)N(CC)CC)ccc21 | 1350 nM | 8 | 67% | 198% | 162% | 174 nM |  |  |  | 
2 | CCOc1ccc(Cc2nc3cc(C(=O)N(CC)CC)ccc3n2CCCCCCCCCCN(C)CCCCCCCCCCn2c(Cc3ccc(OCC)cc3)nc3cc(C(=O)N(CC)CC)ccc32)cc1 |  |  | -97% | -11% | -33% |  | 6.31 µM | 6.61 µM |  | 
3 | CCOc1ccc(Cc2nc3cc(C(=O)N(CC)CC)ccc3n2CCCN(C)CCCn2c(Cc3ccc(OCC)cc3)nc3cc(C(=O)N(CC)CC)ccc32)cc1 |  |  | -43% | -2% | 5% |  | 34.7 µM | 12 µM |  | 
4 | COc1ccc(C(=O)c2c(C)n(CCN3CCOCC3)c3cc(I)ccc23)cc1 |  |  |  | 5% | 15% |  |  | 0.603 µM |  | 
5 | CCOc1ccc(Cc2nc3cc(C(=O)OC)ccc3n2CCC(C)C)cc1 |  |  | -3% | 37% | 121% | 295 nM |  |  | 98% | 
6 | CCOc1ccc(Cc2nc3cc(C(=O)NCCCN(C)CCCNC(=O)c4ccc5c(c4)nc(Cc4ccc(OCC)cc4)n5CCC(C)C)ccc3n2CCC(C)C)cc1 |  |  | -83% | -11% | -32% |  | 17.4 µM | 2.88 µM |  | 
7 | Cc1ccc(Cn2nc(C(=O)NC3C4(C)CCC(C4)C3(C)C)cc2-c2ccc(Cl)c(C)c2)cc1 (stereo not given) |  |  |  | -3% | 9% |  |  |  |  | 
8 | CCOc1ccc(Cc2nc3cc(C(=O)N(CC)CC)ccc3n2CCC(C)C)cc1 | 3240 nM |  | 48% | 192% | 167% |  |  |  |  | 
9 | CCOc1ccc(Cc2nc3cc(C(=O)NCCCCCCCCCCN(C)C)ccc3n2CCC(C)C)cc1 |  |  | -58% | 0% | 20% |  | 24 µM | 19.5 µM |  | 
10 | CCOc1ccc(Cc2nc3cc(C(=O)NCCCN(C)C)ccc3n2CCC(C)C)cc1 |  |  | -5% | 11% | 65% |  |  |  | 71% | 
11 | CCOc1ccc(Cc2nc3cc(C(=O)N(CC)CC)ccc3n2CCCN(C)C)cc1 |  |  | -3% | 106% | 69% |  |  |  | 95% | 12.6 µM
12 | Cc1c(C(=O)NN2CCCCC2)nn(-c2ccc(Cl)cc2Cl)c1-c1ccc(I)cc1 |  |  | -84% |  |  |  |  |  | -8% | 
13 | CCOc1ccc(Cc2nc3cc(C(=O)N(CC)CC)ccc3n2CCCCCCCCCCN(C)C)cc1 |  |  | -55% | 1% | 60% |  | 25.1 µM | 31.6 µM |  | 
14 | CCOc1ccc(Cc2nc3cc(C(=O)N(CC)CC)ccc3n2CCCCN(C)CCCCn2c(Cc3ccc(OCC)cc3)nc3cc(C(=O)N(CC)CC)ccc32)cc1 |  |  | -40% | 5% | 14% |  |  | 57.5 µM |  | 
15 | CCOc1ccc(Cc2nc3cc(C(=O)NCCCCCCCCCCN(C)CCCCCCCCCCNC(=O)c4ccc5c(c4)nc(Cc4ccc(OCC)cc4)n5CCC(C)C)ccc3n2CCC(C)C)cc1 |  |  | -42% | 3% | 28% |  | 25.7 µM | 16.6 µM |  | 
